This assay deals with BDF1 mice, P388 leukemia ip, median survival T/C. Briefly: NCI In Vivo Anticancer Drug Screen. Data for tumor model P388 Leukemia (intraperitoneal) in B6D2F1 (BDF1) mice. To be noted: endpoint: median survival time, higher = longer survival. A digest of the protocol:
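Reported as T/C, where T is the survival measurement in dosed animals and C the same measurement in vehicle controls.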

[1] abbreviates: dose: 100.0 mg/kg/injection, schedule: Q01DX009 (ip), vehicle: saline with Tween-80.
[2] abbreviates: dose: 200.0 mg/kg/injection, schedule: Q04DX003 (ip), vehicle: Klucel (hydroxypropylcellulose) (HPC).
Where [3] appears, read: dose: 100.0 mg/kg/injection, schedule: Q04DX003 (ip), vehicle: Klucel (hydroxypropylcellulose) (HPC).
The mark [4] stands for this setting: dose: 25.0 mg/kg/injection, schedule: Q01DX009 (ip), vehicle: saline with Tween-80.
[5] abbreviates: dose: 50.0 mg/kg/injection, schedule: Q01DX009 (ip), vehicle: saline with Tween-80.
The mark [6] stands for this setting: dose: 50.0 mg/kg/injection, schedule: Q04DX003 (ip), vehicle: saline with Tween-80.

Results on ten compounds are retold here after PubChem BioAssay AID328 (DTP/NCI, 2004).

“And” between values parts separate entries of the source, which are not always exact repeats. Equal entries are not always repeated. Toxic doses and inconclusive results are not listed. Residues, ends and D or L forms follow the SMILES beside them. *: point of attachment. Cbz = O=C(OCc1ccccc1)*; Bn = c1ccc(C*)cc1

For `ClC1=C(Cl)C2(Cl)C(Br)C(Br)C1(Cl)C2(Cl)Cl` (stereo not given), the T/C by setting is: (dose: 25.0 mg/kg/injection, schedule: Q04DX003 (ip), vehicle: other) 118 % of control; (dose: 50.0 mg/kg/injection, schedule: Q04DX003 (ip), vehicle: other) 109 % of control; under setting [1], 90 % of control; (dose: 100.0 mg/kg/injection, schedule: Q04DX003 (ip), vehicle: other) 100 % of control and 104 % of control; (dose: 200.0 mg/kg/injection, schedule: Q01DX009 (ip), vehicle: saline with Tween-80) 100 % of control; under setting [2], 90 % of control. Besides, the T/C is, setting by setting: (dose: 400.0 mg/kg/injection, schedule: Q01DX009 (ip), vehicle: saline with Tween-80) 110 % of control; (dose: 400.0 mg/kg/injection, schedule: Q04DX003 (ip), vehicle: other) 100 % of control.

For the compound `CNC(=S)/N=C(\N)n1nc(C)cc1C`, the T/C is, setting by setting: (dose: 15.0 mg/kg/injection, schedule: Q01DX009 (ip), vehicle: saline with Tween-80) 104 % of control; (dose: 30.0 mg/kg/injection, schedule: Q01DX009 (ip), vehicle: saline with Tween-80) 112 % of control; (dose: 60.0 mg/kg/injection, schedule: Q01DX009 (ip), vehicle: saline with Tween-80) 112 % of control.

Consider `CC(C)CC(NC(=O)C1CCCN1C(=O)C(CSCc1ccccc1)NC(=O)C(CC(N)=O)NC(=O)C(CCC(N)=O)NC(=O)OCc1ccccc1)C(=O)NCC(N)=O` (stereo not given) (Cbz-QNC(Bn)PLG-NH2; configuration not given here), for which the T/C under setting [3] is 105 % of control; the T/C under setting [2] is 102 % of control; the T/C (dose: 400.0 mg/kg/injection, schedule: Q04DX003 (ip), vehicle: Klucel (hydroxypropylcellulose) (HPC)) was 98 % of control.

For the compound `C/C=C1/C[C@@H](C)[C@@](C)(O)C(=O)OCC2=CCN3CC[C@@H](OC1=O)[C@@H]23`, the T/C by setting is: (dose: 7.5 mg/kg/injection, schedule: Q01DX010 (ip), vehicle: steriod suspending solution) 109 % of control; (dose: 15.0 mg/kg/injection, schedule: Q01DX010 (ip), vehicle: steriod suspending solution) 100 % of control; (dose: 30.0 mg/kg/injection, schedule: Q01DX010 (ip), vehicle: steriod suspending solution) 100 % of control; (dose: 60.0 mg/kg/injection, schedule: Q01DX010 (ip), vehicle: steriod suspending solution) 95 % of control and 109 % of control.

Take `CNC(=N)c1ccc(NC(=N)c2ccc(NC(=O)Nc3ccc(NC(=O)Nc4ccc(C(=N)Nc5ccc(C(=N)NC)cc5)cc4)cc3)cc2)cc1`: the T/C by setting is: (dose: 4.0 mg/kg/injection, schedule: Q04DX003 (ip), vehicle: Klucel (hydroxypropylcellulose) (HPC)) 154 % of control; (dose: 6.0 mg/kg/injection, schedule: Q04DX003 (ip), vehicle: Klucel (hydroxypropylcellulose) (HPC)) 150 % of control and 154 % of control; (dose: 7.0 mg/kg/injection, schedule: Q01DX009 (ip), vehicle: Klucel (hydroxypropylcellulose) (HPC)) 161 % of control; (dose: 9.0 mg/kg/injection, schedule: Q04DX003 (ip), vehicle: Klucel (hydroxypropylcellulose) (HPC)) 159 % of control; (dose: 11.0 mg/kg/injection, schedule: Q01DX009 (ip), vehicle: Klucel (hydroxypropylcellulose) (HPC)) 150 % of control; (dose: 13.0 mg/kg/injection, schedule: Q04DX003 (ip), vehicle: Klucel (hydroxypropylcellulose) (HPC)) 176 % of control and 177 % of control. Further, the T/C by setting is: (dose: 16.5 mg/kg/injection, schedule: Q01DX009 (ip), vehicle: Klucel (hydroxypropylcellulose) (HPC)) 192 % of control; (dose: 20.0 mg/kg/injection, schedule: Q04DX003 (ip), vehicle: Klucel (hydroxypropylcellulose) (HPC)) 153 % of control; (dose: 25.0 mg/kg/injection, schedule: Q01DX009 (ip), vehicle: Klucel (hydroxypropylcellulose) (HPC)) 231 % of control; (dose: 30.0 mg/kg/injection, schedule: Q04DX003 (ip), vehicle: Klucel (hydroxypropylcellulose) (HPC)) 176 % of control; (dose: 44.0 mg/kg/injection, schedule: Q04DX003 (ip), vehicle: Klucel (hydroxypropylcellulose) (HPC)) 160 % of control and 207 % of control; (dose: 67.0 mg/kg/injection, schedule: Q04DX003 (ip), vehicle: Klucel (hydroxypropylcellulose) (HPC)) 173 % of control and 207 % of control. Also, the T/C was 230 % of control (2×) and 156 % of control under setting [3]; 160 % of control and 211 % of control (dose: 150.0 mg/kg/injection, schedule: Q04DX003 (ip), vehicle: Klucel (hydroxypropylcellulose) (HPC)).

On to `COc1ccc(CC2c3cc(OC)c(OC)cc3CCN2C(=O)OCc2ccccc2)cc1OC` (stereo not given), for which the T/C (dose: 50.0 mg/kg/injection, schedule: Q01DX005 (ip), vehicle: saline with Tween-80) was 91 % of control; the T/C (dose: 100.0 mg/kg/injection, schedule: Q01DX005 (ip), vehicle: saline with Tween-80) was 93 % of control; the T/C (dose: 200.0 mg/kg/injection, schedule: Q01DX005 (ip), vehicle: saline with Tween-80) was 92 % of control.

In the case of `COC(=O)c1ccc(CBr)cc1`, the T/C is, setting by setting: under setting [4], 103 % of control; (dose: 25.0 mg/kg/injection, schedule: Q04DX003 (ip), vehicle: saline with Tween-80) 100 % of control; under setting [5], 92 % of control; under setting [6], 91 % of control; (dose: 100.0 mg/kg/injection, schedule: Q04DX003 (ip), vehicle: saline with Tween-80) 100 % of control.

Turning to `CC12CC[C]([Hg][I])(CC1)C2(C)C`, the T/C reads like this: (dose: 3.13 mg/kg/injection, schedule: Q01DX009 (ip), vehicle: saline with Tween-80) 121 % of control; (dose: 6.25 mg/kg/injection, schedule: Q01DX009 (ip), vehicle: saline with Tween-80) 121 % of control; (dose: 12.5 mg/kg/injection, schedule: Q01DX009 (ip), vehicle: saline with Tween-80) 114 % of control.

For `FC(F)(F)c1cccc(-c2nc3nc(Cl)c(Cl)nc3[nH]2)c1`, the T/C under setting [4] is 99 % of control, the T/C under setting [5] is 94 % of control, the T/C under setting [6] is 108 % of control and the T/C under setting [1] was 103 % of control.

Take `COC1/C=C/OC2(C)Oc3c(C)c(O)c4c(O)c5c(c(O)c4c3C2=O)CN(C)C(=N5)/C(C)=C\C=C\C(C)C(O)C(C)C(O)C(C)C(OC(C)=O)C1C` (stereo not given): the T/C reads like this: (dose: 100.0 mg/kg/injection, schedule: Q04DX002 (ip), vehicle: saline with Tween-80) 97 % of control; (dose: 200.0 mg/kg/injection, schedule: Q04DX002 (ip), vehicle: saline with Tween-80) 97 % of control; (dose: 400.0 mg/kg/injection, schedule: Q04DX002 (ip), vehicle: saline with Tween-80) 116 % of control.
